# Measurements taken from US8895313B2, “Ligands for aggregated tau molecules” (Wista Laboratories Ltd., priority 2008, dated 2014).
# Target: PHF (paired helical filaments) isolated from the brain of an Alzheimer's disease patient (Homo sapiens, UniProt P10636)
# Assay: Competitive binding assay: displacement of primulin fluorescence from PHFs
# Design: key to P50: fl indicates that the compound is fluorescent. Consequently, binding levels for the compound in the competition binding assay cannot be determined by fluorescent spectroscopy
# Conditions: compound fluorescent, no P50 obtainable
# Experimental: The DSB compounds were tested for their ability to bind to PHF in a competition-style assay.
# If a test compound that also binds to PHFs with the same or greater affinity is added, it will displace the reference ligand and reduce the fluorescence signal. In the present assay, the reference compound is primulin, which was added at 1 μM. Test compounds were added at concentrations from 0.05 to 1 μM. The P50 for a test compound is defined as the concentration of compound that reduces the primulin signal to 50% of the control value. This value is, therefore, not an absolute affinity, but a relative affinity compared to the affinity of primulin.
# PHFs were isolated from the brain of an Alzheimer's disease patient essentially as described by Wischik et al. (Neurobiology of Aging, Vol. 16, pp. 409-431, 1995). The IFII fraction was isolated by centrifugation on a sucrose gradient as described in the PhD thesis of C. M. Wischik, and was further extracted into an ‘abc sup’ as described by C. M. Wischik (Thesis “The structure and biochemistry of paired helical filaments in Alzheimer's disease” Part I and II; Cambridge University, 1989).
# The assay for ligand activity was performed in 96 well plates (Nunc Cat. No. 236108). The test compound at the required concentration was mixed with PHFs, then primulin was added to give a final concentration of 1 μM and a total volume of 100 μl. The concentration of PHFs added was determined for each preparation to give an adequate fluorescence signal, and was typically in the range 1-2 μl/100 μl. The test compounds were typically dissolved in DMSO to give a final concentration of 10% DMSO in the assay. The control fluorescence, in the absence of PHFs, was also measured in the presence of 10% DMSO.
# The fluorescence was measured in a Varian Carey Eclipse Fluorescence Spectrophotometer, with the […] wavelength at 480 nm. Excitation spectra were recorded and corrected by subtraction of the signal measured in the absence of PHFs, using the Varian software. The fluorescence signal at the peak […] wavelength of 420 nm was measured from the corrected spectra. The fluorescence values were plotted as a function of concentration of test compound, and the value for P50 measured from the graph.
# PHF (paired helical filaments) isolated from the brain of an Alzheimer's disease patient, sequence (P10636 623-708 limits assumed): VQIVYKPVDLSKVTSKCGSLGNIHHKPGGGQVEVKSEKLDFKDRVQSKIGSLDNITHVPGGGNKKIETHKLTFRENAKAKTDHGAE
row,P50,Structure (SMILES)
1,fl,Oc1ccc(/C=C/c2ccc(-c3nc4ccc(O)cc4s3)cc2)c(C(F)(F)F)c1 [BEHF-07]
2,fl,Oc1ccc2nc(-c3ccc(/C=C/c4ccc(F)cc4)cc3)sc2c1 [BEHF-01]

# Same assay, conditions: concentration that reduces the signal of 1 μM primulin to 50% of control; relative affinity
row,Structure (SMILES),P50
1,COc1ccc2nc(-c3ccc(NC(=O)c4cccc(C(F)(F)F)c4)cc3)sc2c1 [ABFMA-02],no effect
2,CNc1cccc(C(=O)Nc2ccc(-c3nc4ccc(C)cc4s3)cc2)c1 [ABAA-12],no effect
3,Cc1ccc2nc(-c3ccc(NC(=O)c4cccc(N(C)C)c4)cc3)sc2c1 [ABAA-08],no effect
4,COc1ccc2nc(-c3ccc(NC(=O)c4ccc(OCC(F)(F)F)cc4)cc3)sc2c1 [ABFMA-19],no effect
5,COc1ccc2nc(-c3ccc(NC(=O)c4ccc(OCCCC(F)(F)F)cc4)cc3)sc2c1 [ABFMA-13],no effect
6,Cc1ccc2nc(-c3ccc(/N=N/c4c(C(F)(F)F)cc(O)cc4C(F)(F)F)cc3)sc2c1 [BDF-08],no effect

# Further lines, results first:
row,P50,Structure (SMILES)
1,no effect,Cc1ccc2nc(-c3ccc(/C=C/c4ccccc4O)cc3)sc2c1 [BEMA-09]
2,no effect,Cc1ccc2nc(-c3ccc(NC(=O)c4ccc(F)nc4)cc3)cn2c1 [AIPN-06]
3,no effect,Cc1ccc2nc(-c3ccc(NC(=O)c4cccnc4)cc3)cn2c1 [AIPN-04]
4,no effect,COc1ccc2nc(-c3ccc(/C=C/c4cccc(C(F)(F)F)c4)cc3)sc2c1 [BEFA-02]
5,no effect,Cc1ccc2nc(-c3ccc(NC(=O)c4ccc(F)c(C(F)(F)F)c4)cc3)cn2c1 [AIPN-17]
6,no effect,Oc1ccc2nc(-c3ccc(/C=C/c4ccc(NCCCC(F)(F)F)cc4)cc3)sc2c1 [BEHF-04]
7,no effect,Cc1ccc2nc(-c3ccc(/C=C/c4ccc(O)cc4)cc3)sc2c1 [BEMA-11]
8,no effect,COc1ccc2nc(-c3ccc(/C=C/c4ccc(C(F)(F)F)cc4)cc3)sc2c1 [BEFA-03]
9,no effect,COc1ccc2nc(-c3ccc(/C=C/c4ccc(OCC(F)(F)F)cc4)cc3)sc2c1 [BEFA-04]

# Same assay, conditions: concentration that reduces the signal of 1 μM primulin to 50% of control; relative affinity; read-out: P50
row,Structure (SMILES),IC50 [nM]
1,COc1cc(NC(=O)c2ccc(F)c([N+](=O)[O-])c2)ccc1-c1nc2ccccc2s1 [AUB-01],> 1000
2,O=C(Nc1ccc(-c2nc3ccc(O)cc3s2)cc1)c1ccc(OCC(F)(F)F)cc1 [ABFHA-03],100
3,Oc1ccc(/N=N/c2ccc(-c3nc4ccc(O)cc4s3)c(O)c2)c(C(F)(F)F)c1 [BDF-14],20
4,CN(C)CCOc1cc(NC(=O)c2ccc([N+](=O)[O-])c(C(F)(F)F)c2)ccc1-c1nc2ccccc2s1 [AUB-03],> 1000
5,COc1ccc2sc(-c3ccc(/N=N/c4ccc(O)cc4C(F)(F)F)cc3)nc2c1 [BDF-11],600
6,O=C(Nc1ccc(-c2nc3ccc(O)cc3s2)cc1)c1cc(OC(F)(F)F)ccc1O [ABFHA-09],> 1000
7,O=C(Nc1ccc(-c2nc3ccc(O)cc3s2)cc1)c1ccc(O)cc1C(F)(F)F [ABFHA-08],> 1000
8,O=C(Nc1ccc(-c2nc3ccc(O)cc3s2)cc1)c1ccc(OCCCC(F)(F)F)cc1 [ABFHA-05],400
9,COc1ccc2nc(-c3ccc(NC(=O)c4ccc([N+](=O)[O-])c(C(F)(F)F)c4)cc3)sc2c1 [ABFMA-12],170
10,COc1ccc2nc(-c3ccc(/C=C/c4cccc(N)c4)cc3)sc2c1 [BEMOA-05],280
11,Cc1ccc2nc(-c3ccc(/N=N/c4ccc(N(C)C)cc4)cc3)cn2c1 [DPN-001],30
12,COc1ccc2nc(-c3ccc(NC(=O)c4ccc(F)c([N+](=O)[O-])c4)cc3)sc2c1 [ABMFMA-05],200
13,COc1cccc2sc(-c3ccc(/N=N/c4ccc(C(F)(F)F)cc4O)cc3)nc12 [BDF-12],700
14,Cc1ccc2nc(-c3ccc(/N=N/c4ccc(O)cc4C(F)(F)F)cc3)sc2c1 [BDF-01],290
15,COc1ccc2nc(-c3ccc(NC(=O)c4ccc(I)c([N+](=O)[O-])c4)cc3)sc2c1 [ABMFMA-09],210
16,Oc1ccc(/N=N/c2ccc(-c3nc4cc(O)ccc4s3)cc2)c(C(F)(F)F)c1 [BDF-05],90

# More lines, now with the values ahead:
row,IC50 [nM],Structure (SMILES)
1,> 1000,Cc1ccc2nc(-c3ccc(NC(=O)c4cc(F)c(O)c(F)c4)cc3)cn2c1 [AIPN-26]
2,870,COc1ccc2nc(-c3ccc(NC(=O)c4ccccc4N)cc3)sc2c1 [ABMA-04]
3,> 1000,Cc1ccc2nc(-c3ccc(NC(=O)c4cc(F)c(N(C)C)c(F)c4)cc3)cn2c1 [AIPN-16]
4,900,Nc1ccccc1C(=O)Nc1ccc(-c2nc3ccc(O)cc3s2)cc1 [ABHA-01]
5,630,COc1ccc(C(=O)Nc2ccc(-c3cn4cc(C)ccc4n3)cc2)cc1 [AIPN-13]
6,50,Cc1ccc2nc(-c3ccc(/C=C/c4ccc([N+](=O)[O-])cc4)cc3)cn2c1 [IEPN-01]
7,340,Cc1ccc2nc(-c3ccc(NC(=O)c4ccc([N+](=O)[O-])c(C(F)(F)F)c4)cc3)cn2c1 [AIPN-09]
8,100,Cc1ccc2nc(-c3ccc(NC(=O)c4ccc([N+](=O)[O-])cc4)cc3)cn2c1 [AIPN-08]
9,310,COc1ccc2nc(-c3ccc(NC(=O)c4ccc(O)c([N+](=O)[O-])c4)cc3)sc2c1 [ABMA-13]
10,> 1000,CN(C)c1ccc(C(=O)Nc2ccc(-c3cn4ccccc4n3)cc2)cc1 [AIPN-01]
11,270,CNc1ccc(C(=O)Nc2ccc(-c3cn4cc(C)ccc4n3)cc2)cc1F [AIPN-20]
12,460,CNc1c(F)cc(C(=O)Nc2ccc(-c3cn4cc(C)ccc4n3)cc2)cc1F [AIPN-21]
13,> 1000,COc1cc(F)c(C(=O)Nc2ccc(-c3cn4cc(C)ccc4n3)cc2)c(F)c1 [AIPN-25]
14,~1200,Cc1ccc2nc(-c3ccc(/C=C/c4cccc(O)c4)cc3)sc2c1 [BEMA-10]
15,850,COc1ccc2nc(-c3ccc(NC(=O)c4cccc(N)c4)cc3)sc2c1 [ABMA-05]
16,560,Nc1cccc(C(=O)Nc2ccc(-c3nc4ccc(O)cc4s3)cc2)c1 [ABHA-02]
17,~1000,COc1c(F)cc(C(=O)Nc2ccc(-c3cn4cc(C)ccc4n3)cc2)cc1F [AIPN-24]
18,660,Cc1ccc2nc(-c3ccc(NC(=O)c4ccc(N)cc4)cc3)cn2c1 [AIPN-11]
19,430,COc1ccc2nc(-c3ccc(NC(=O)c4ccc(O)cc4)cc3)sc2c1 [ABMA-11]
20,450,Nc1ccc(C(=O)Nc2ccc(-c3nc4ccc(O)cc4s3)cc2)cc1 [ABHA-03]
21,330,CNc1ccc(C(=O)Nc2ccc(-c3cn4cc(C)ccc4n3)cc2)cc1 [AIPN-12]
